How the values were obtained:
Type in all cases: cell-based, human
[1] = tested on: cisplatin-resistant ovarian cancer (A2780cis) cell line; assay: MTT cytotoxicity assay, A2780cis; details: 48 h, ± SD, 1.56-200 µM
Method: (§1) DMSO solutions (10^−3 M) of the complexes (1–4) were subjected to molar conductance measurements at room temperature over 48 h, and the observed values are presented in Table S8. […] A comparative cytotoxicity assay explored the differences between nickel(II) complexes derived from thiosemicarbazone and dithiocarbazate ligands. Additionally, we investigated the influence of the coligands triphenylphosphine and pyridine in the complexes. The effectiveness of the compounds in inhibiting cell viability was concentration- and time-dependent. The analysis involved varying concentrations between 1.56 and 200 µM over 48 h using an MTT assay, with untreated cells serving as the control. Table 5 presents the IC50 values for the free ligands, synthesized complexes, and cisplatin, which served as reference compounds in this study.
(§2) The cytotoxic activity of the synthesized compounds was evaluated against human cell lines, including breast cancer (MCF–7), cisplatin-resistant ovarian cancer (A2780cis), lung cancer (A549), and nontumor lung cells (MRC–5). The A549 and MRC-5 cell lines were cultured in Dulbecco’s Modified Eagle’s Medium (DMEM), while the MCF-7 and A2780cis cell lines were cultured in Roswell Park Memorial Institute (RPMI–1640). Both cultures were supplemented with 10% fetal bovine serum (FBS), penicillin (100 IU/mL), streptomycin ([…]), and L-glutamine (2 mM). The cells were grown as monolayers in disposable 25 cm^2 flasks and incubated at 37 °C in a humidified atmosphere containing 5% CO2.
(§3) The cytotoxicity activity of the compounds was assessed using a colorimetric MTT (3-(4,5-dimethylthiazol-2-yl)-2,5-diphenyltetrazolium bromide) assay. The cells were trypsinized, counted, and adjusted to the appropriate concentration and were seeded into 96-well plates at a density of 1.5 × 10^4 cells/well. […] The absorbance was measured at 570 nm using a Varioskan LUX Multimode Microplate Reader (VL000D0, Waltham, MA 02451, USA). […] The half-maximal inhibitory concentration (IC50) values were determined from dose–response curves using GraphPad Prism version 8 software.

[2] = tested on: nontumoral lung (MRC-5) cell line; assay: MTT cytotoxicity assay, MRC-5; details: ± SD, 1.56-200 µM, nontumoral cells
Method: as §1, §2, §3

[3] = tested on: breast cancer (MCF-7) cell line; assay: MTT cytotoxicity assay, MCF-7; details: ± SD, 1.56-200 µM
Method: as §1, §2, §3

[4] = tested on: lung cancer (A549) cell line; assay: MTT cytotoxicity assay, A549; details: ± SD, 1.56-200 µM
Method: as §1, §2, §3

SMILES: N.N.[Cl][Pt][Cl] [Cisplatin, cisplatin, reference compound]
- IC50 [1]: 37 µM
- IC50 ([2]; 48 h): 29.1 µM
- IC50 ([3]; 48 h): 14 µM
- IC50 ([4]; 48 h): 11.5 µM

SMILES: O=C(C/C(=N/NC(=S)Nc1ccccc1)C(F)(F)F)c1cccs1 [H2L^1, thenoyltrifluoroacetone–4–phenyl–3–thiosemicarbazone]
- IC50 ([1]; Homo sapiens, A2780cis): 42.8 µM
- IC50 ([2]; Homo sapiens, MRC5, 48 h): > 100 µM
- IC50 ([3]; Homo sapiens, MCF7, 48 h): > 100 µM
- IC50 ([4]; Homo sapiens, A549, 48 h): 51.4 µM

SMILES: O=C(C/C(=N/NC(=S)SCc1ccccc1)C(F)(F)F)c1cccs1 [H2L^2, thenoyltrifluoroacetone–S–benzyldithiocarbazate]
- IC50 ([1]; Homo sapiens, A2780cis): 78.9 µM
- IC50 ([2]; Homo sapiens, MRC5, 48 h): > 100 µM
- IC50 ([3]; Homo sapiens, MCF7, 48 h): > 100 µM
- IC50 ([4]; Homo sapiens, A549, 48 h): > 100 µM

— paper PMC12430362, “Comparative Study of Ni(II) Complexes with Dithiocarbazate- and Thiosemicarbazone-Based Ligands: Synthesis, Crystal Structures, and Anticancer Activity” (Molecules, 2025)
